Where “and” joins values, the source holds several entries; their conditions need not be identical. Equal values may be shown once.
Experiments:
[1] = system: U2OS cells; experiment: Cell growth assay (IncuCyte confluence over 72 h); assay type: cell-based; set-up: key to U2OS cell growth: % of well area covered by cells (confluence)
Experimental: Cell growth assay: Cell confluence (phase) from RPE1 (hTERT RPE-1, ATCC CLR_4000) or U2OS (ATCC, HTB-96) cell lines were monitored over time with the IncuCyte S3 (Sartiorius, Germany) in 384-well plates in 50 ul DMEM media, supplemented with 10% Fetal Bovine Serum (FBS) 1% penicillin/Streptomycin and incubated 24 h before treatment. Experiment was performed as described in Cano-Franco et al.. […] Cell confluence is represented as % of area covered by cells. Each data point represents the average ratio or confluence obtained from three individual wells of the plate.

[2] = target: LC3A (Homo sapiens, UniProt Q9H492); experiment: Isothermal titration calorimetry (ITC); assay type: binding; conditions: LC3A; read-out: KD (ITC)
Excerpt: To minimize nonspecific dilution heat effects, DMSO concentrations in the protein and compound samples were matched. […] For this protocol, the chamber was pre-equilibrated with the protein, and the test compounds were titrated while continuously measuring the rate of exothermic heat evolution. The heat of binding was integrated, corrected, and fitted to an independent single-binding site model based on the manufacturer’s instructions, from which thermodynamic parameters (ΔH and TΔS), equilibrium association and dissociation constants (KA and KD, respectively), and stoichiometry (n) were calculated using TA Instruments NanoAnalyze software.

Compound: CO[C@@H]1[C@@H](OC(N)=O)[C@@H](O)[C@H](Oc2ccc3c(O)c(NC(=O)c4ccc(O)c(CC=C(C)C)c4)c(=O)oc3c2C)OC1(C)C [compound 12, Novobiocin]
- U2OS cell growth ([1]; 100 nM, time 10 h): 31.1029 and 33.4179 and 23.7087
- U2OS cell growth ([1]; 100 nM, time 0 h): 19.136 and 22.8325 and 13.4185
- U2OS cell growth ([1]; 100 nM, time 2 h): 26.0593 and 27.2796 and 22.6674
- U2OS cell growth ([1]; 100 nM, time 4 h): 30.3299 and 25.4304 and 21.2335
- U2OS cell growth ([1]; 100 nM, time 6 h): 27.5347 and 27.1928 and 26.8694
- U2OS cell growth ([1]; 100 nM, time 8 h): 31.7442 and 25.9761 and 21.578
- U2OS cell growth ([1]; 500 nM, time 0 h): 26.2226 and 29.6942 and 26.7407
- U2OS cell growth ([1]; 500 nM, time 2 h): 28.1697 and 29.3576 and 35.4881
- U2OS cell growth ([1]; 500 nM, time 4 h): 24.6559 and 29.8656 and 34.6982
- U2OS cell growth ([1]; 500 nM, time 6 h): 27.3788 and 36.5331 and 38.1104
- U2OS cell growth ([1]; 1 uM, time 12 h): 42.1826
- U2OS cell growth ([1]; 1 uM, time 0 h): 33.676 and 37.1441 and 40.8786
- U2OS cell growth ([1]; 1 uM, time 2 h): 36.3349 and 37.5509 and 45.2384
- U2OS cell growth ([1]; 1 uM, time 4 h): 33.5211 and 30.275 and 38.1541
- U2OS cell growth ([1]; 1 uM, time 6 h): 37.9722 and 40.3217 and 48.2479
- U2OS cell growth ([1]; 3 uM, time 10 h): 50.7454 and 57.0193 and 59.2136
- U2OS cell growth ([1]; 3 uM, time 12 h): 41.453 and 34.0715 and 58.5093
- U2OS cell growth ([1]; 3 uM, time 0 h): 41.5291 and 47.819 and 45.1855
- U2OS cell growth ([1]; 3 uM, time 2 h): 44.8462 and 48.6747 and 48.1364
- U2OS cell growth ([1]; 3 uM, time 4 h): 43.175 and 44.1535 and 45.8798
- U2OS cell growth ([1]; 3 uM, time 6 h): 48.3538 and 51.3151 and 53.1755
- U2OS cell growth ([1]; 3 uM, time 8 h): 48.5002 and 53.1189 and 54.8109
- U2OS cell growth ([1]; 5 uM, time 10 h): 57.6709 and 52.4954 and 56.7999
- U2OS cell growth ([1]; 5 uM, time 0 h): 41.1202 and 38.7556 and 46.8996
- U2OS cell growth ([1]; 5 uM, time 2 h): 48.6568 and 43.7565 and 48.1243
- U2OS cell growth ([1]; 5 uM, time 4 h): 49.6825 and 47.505 and 46.9675
- U2OS cell growth ([1]; 5 uM, time 6 h): 52.2007 and 50.4885 and 57.3887
- U2OS cell growth ([1]; 5 uM, time 8 h): 51.5745 and 47.2991 and 53.416
- U2OS cell growth ([1]; 10 uM, time 10 h): 46.9907 and 34.892 and 44.8825
- U2OS cell growth ([1]; 10 uM, time 0 h): 34.3842 and 28.0059 and 32.3826
- U2OS cell growth ([1]; 10 uM, time 2 h): 40.1489 and 30.903 and 35.6928
- U2OS cell growth ([1]; 10 uM, time 4 h): 42.2655 and 32.6525 and 40.3474
- U2OS cell growth ([1]; 10 uM, time 6 h): 45.1844 and 33.7835 and 42.5534
- U2OS cell growth ([1]; 10 uM, time 8 h): 38.9614 and 32.8145 and 39.1419

Compound: CCCCCCC(Sc1nc(Cl)cc(Nc2nc(-c3ccc(C(=O)O)cc3)cs2)n1)C(=O)O (centres unmarked) [compound 21]
- Kd [2]: 2000 nM

Reference: publication PMC11589570, “Critical assessment of LC3/GABARAP ligands used for degrader development and ligandability of LC3/GABARAP binding pockets” (Nature Communications, 2024)
